{
  "source": "paper PMC4357167",
  "about": "(Cancer cell, 2015)",
  "key": {"SMO Q635E": {"biological_target": "SMO Q635E (Homo sapiens, UniProt Q99835, Q635E)", "sequence (Q99835 28-787 Q635E)": "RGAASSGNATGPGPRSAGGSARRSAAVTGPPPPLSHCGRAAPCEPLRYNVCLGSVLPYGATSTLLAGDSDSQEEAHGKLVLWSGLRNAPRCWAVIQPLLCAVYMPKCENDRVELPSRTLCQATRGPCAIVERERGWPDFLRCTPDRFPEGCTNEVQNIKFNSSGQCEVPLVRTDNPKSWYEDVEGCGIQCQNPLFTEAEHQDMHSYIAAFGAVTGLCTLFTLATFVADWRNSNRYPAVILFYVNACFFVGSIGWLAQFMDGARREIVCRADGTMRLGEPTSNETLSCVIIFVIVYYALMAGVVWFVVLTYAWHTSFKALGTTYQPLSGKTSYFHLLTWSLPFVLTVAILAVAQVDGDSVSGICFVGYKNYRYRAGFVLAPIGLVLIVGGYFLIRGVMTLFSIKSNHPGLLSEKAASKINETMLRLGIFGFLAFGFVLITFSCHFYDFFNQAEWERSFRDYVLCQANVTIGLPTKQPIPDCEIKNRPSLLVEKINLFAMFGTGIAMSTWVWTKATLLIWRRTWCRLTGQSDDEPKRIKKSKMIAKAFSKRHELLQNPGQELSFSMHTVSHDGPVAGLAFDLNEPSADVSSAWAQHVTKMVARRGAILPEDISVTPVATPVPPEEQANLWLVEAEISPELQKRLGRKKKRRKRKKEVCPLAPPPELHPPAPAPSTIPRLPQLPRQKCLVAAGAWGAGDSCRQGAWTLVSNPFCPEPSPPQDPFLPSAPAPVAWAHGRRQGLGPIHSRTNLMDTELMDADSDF", "conditions": "SHH-N CM, 10, 20 or 80 nM vismodegib"}, "SMO Q477E": {"biological_target": "SMO Q477E (Homo sapiens, UniProt Q99835, Q477E)", "sequence (Q99835 28-787 Q477E)": "as the sequence (Q99835 28-787 Q635E) above, with Q450E, E608Q counted along it", "assay": "Hedgehog signaling assay", "type": "cell-based", "conditions": "100 nM vismodegib and SHH-N ligand"}, "[1]": {"tested_on": "SMO-LBP and SMO-CA variants", "assay": "HH pathway activity", "conditions": "[…] nM vismodegib (4-fold greater than IC50), SHH-N CM"}, "SMO L412F": {"biological_target": "SMO L412F (Homo sapiens, UniProt Q99835, L412F)", "sequence (Q99835 28-787 L412F)": "as the sequence (Q99835 28-787 Q635E) above, with L385F, E608Q counted along it", "assay": "Hedgehog signaling assay", "type": "cell-based", "conditions": "SHH-N CM, 100 nM vismodegib"}, "[2]": {"tested_on": "advanced and metastatic BCCs", "conditions": "2012, cited from earlier work"}, "[3]": {"tested_on": "syndromic BCCs in patients with Basal Cell Nevus Syndrome", "conditions": "Gorlin, inherited PTCH1 loss; ref Tang et al., 2012; cited from earlier work"}, "SMO W281C": {"biological_target": "SMO W281C (Homo sapiens, UniProt Q99835, W281C)", "sequence (Q99835 28-787 W281C)": "as the sequence (Q99835 28-787 Q635E) above, with W254C, E608Q counted along it", "assay": "Hedgehog signaling assay", "type": "cell-based", "conditions": "100 nM vismodegib and SHH-N ligand"}, "SMO D473G": {"biological_target": "SMO D473G (Homo sapiens, UniProt Q99835, D473G)", "sequence (Q99835 28-787 D473G)": "as the sequence (Q99835 28-787 Q635E) above, with D446G, E608Q counted along it", "assay": "Hedgehog signaling assay", "type": "cell-based", "conditions": "100 nM vismodegib and SHH-N ligand"}, "SMO V386A": {"biological_target": "SMO V386A (Homo sapiens, UniProt Q99835, V386A)", "sequence (Q99835 28-787 V386A)": "as the sequence (Q99835 28-787 Q635E) above, with V359A, E608Q counted along it", "assay": "Hedgehog signaling assay", "type": "cell-based", "conditions": "100 nM vismodegib and SHH-N ligand"}, "SMO V321M": {"biological_target": "SMO V321M (Homo sapiens, UniProt Q99835, V321M)", "sequence (Q99835 28-787 V321M)": "as the sequence (Q99835 28-787 Q635E) above, with V294M, E608Q counted along it", "assay": "Hedgehog signaling assay", "type": "cell-based", "conditions": "SHH-N CM, 100 nM vismodegib"}, "SMO H231R": {"biological_target": "SMO H231R (Homo sapiens, UniProt Q99835, H231R)", "sequence (Q99835 28-787 H231R)": "as the sequence (Q99835 28-787 Q635E) above, with H204R, E608Q counted along it", "assay": "Hedgehog signaling assay", "type": "cell-based", "conditions": "100 nM vismodegib and SHH-N ligand"}, "SMO F460L": {"biological_target": "SMO F460L (Homo sapiens, UniProt Q99835, F460L)", "sequence (Q99835 28-787 F460L)": "as the sequence (Q99835 28-787 Q635E) above, with F433L, E608Q counted along it", "assay": "Hedgehog signaling assay", "type": "cell-based", "conditions": "SHH-N CM, 100 nM vismodegib"}},
  "data": [
    {"compound": "CS(=O)(=O)c1ccc(C(=O)Nc2ccc(Cl)c(-c3ccccn3)c2)c(Cl)c1", "note": "[vismodegib]", "values": [
      {"measurement": "HH pathway activity, resistance at low drug concentrations", "setting": "SMO Q635E", "value": "resistance at low but not high vismodegib concentrations"},
      {"measurement": "HH activity (Gli1 mRNA) in the presence of drug", "setting": "SMO Q477E", "value": "retained high levels of HH activity"},
      {"measurement": "HH pathway activity (Gli1 mRNA) in the presence of SMO variants", "setting": "[1]", "value": "partial or complete resistance"},
      {"measurement": "HH pathway activity, responsiveness to drug", "setting": "SMO L412F", "value": "partially or completely unresponsive"},
      {"measurement": "patients developing resistance during the first year", "setting": "[2]; additional to non-responders, ref Chang and Oro", "value": 20, "unit": "%"},
      {"measurement": "overall response rate", "setting": "[2]; advanced and metastatic BCCs, ref Axelson et al., 2013, Sekulic et al.", "value": 48, "unit": "%"},
      {"measurement": "clinical response", "setting": "[3]", "value": "respond to vismodegib and have a low rate of acquired resistance"},
      {"measurement": "HH activity (Gli1 mRNA) in the presence of drug", "setting": "SMO W281C", "value": "retained high levels of HH activity"},
      {"measurement": "HH activity (Gli1 mRNA) in the presence of drug", "setting": "SMO D473G", "value": "retained high levels of HH activity"},
      {"measurement": "HH activity (Gli1 mRNA) in the presence of drug", "setting": "SMO V386A", "value": "response similar to SMO WT"},
      {"measurement": "HH pathway activity, responsiveness to drug", "setting": "SMO V321M", "value": "partially or completely unresponsive"},
      {"measurement": "HH activity (Gli1 mRNA) in the presence of drug", "setting": "SMO H231R", "value": "retained high levels of HH activity"},
      {"measurement": "HH pathway activity, responsiveness to drug", "setting": "SMO F460L", "value": "partially or completely unresponsive"}
    ]}
  ]
}
